Consider 18 compounds from patent publication US10738041B2, “Ferroportin inhibitors” (Vifor (International) AG, priority 2015, dated 2020).

One experiment concerns the target T1, human Fpn-GFP fusion (Homo sapiens, UniProt Q9NP59).
T1 construct: expressed in transfected cells; host or cells: HEK-293 cell line #354 (derivative of HEK-293 Tet-ON Advanced, Clontech)
T1 sequence (Q9NP59 1-571): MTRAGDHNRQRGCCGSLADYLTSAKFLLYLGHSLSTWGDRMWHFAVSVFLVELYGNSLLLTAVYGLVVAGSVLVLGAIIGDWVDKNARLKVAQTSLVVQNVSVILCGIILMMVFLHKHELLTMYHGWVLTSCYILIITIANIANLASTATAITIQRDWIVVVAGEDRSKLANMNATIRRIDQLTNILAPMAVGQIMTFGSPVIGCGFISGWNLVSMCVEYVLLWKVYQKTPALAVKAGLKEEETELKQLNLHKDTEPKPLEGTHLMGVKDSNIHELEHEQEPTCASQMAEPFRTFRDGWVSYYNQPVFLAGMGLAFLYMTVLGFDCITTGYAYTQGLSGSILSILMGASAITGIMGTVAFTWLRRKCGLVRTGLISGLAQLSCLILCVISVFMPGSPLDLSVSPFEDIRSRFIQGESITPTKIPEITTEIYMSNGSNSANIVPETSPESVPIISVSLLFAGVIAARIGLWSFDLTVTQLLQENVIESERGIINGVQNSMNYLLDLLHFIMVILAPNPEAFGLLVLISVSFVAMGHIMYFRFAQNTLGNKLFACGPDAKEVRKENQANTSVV
In words: Ferroportin Internalization and Degradation Assay (FACS). To be noted: average of multiple measurements, Fpn-GFP MFI, HEK-293 cell line #354, FACS; for DC50: read-out: EC50 ferroportin internalization and degradation. The class given is cell-based. How it is done:
Growing HEK-293 #354 cells in doxycycline containing media induced expression of human Fpn-GFP fusion protein on the cell surface. […] Small molecular weight Fpn inhibitor compounds were tested for dose-dependent effects on the Fpn-GFP mean fluorescence intensity (MFI) on HEK-293 cell line #354, as described below. HEK #354 cells were harvested from ca. 80% confluent cultures, seeded at 0.6×10^6 (cells/ml in DMEM/F12 GlutaMAX™ medium (Invitrogen, Cat. 31331-028) containing 10% FBS (Clontech, Cat. 631106), 1% Penicillin-Streptomycin (Invitrogen, Cat. 15140-122), 200 μg/ml Hygromycin B (Invitrogen, Cat. 10687-010), Blasticidin 5 μg/ml, (Invitrogen, Cat. R210-01), 4 μg/ml doxycycline (Clontech, Cat. 631311), 50 μl per well of 384 well plates (Greiner; Cat. 781091) and grown at 37° C. with 5% CQ. After overnight incubation, 10 μl/well of dilution series of the test compounds were added in quadruplicates and plates were further incubated overnight at 37° C. with 5% CO2. Cells were washed once with FACS buffer (PBS containing 1% FBS, 2 mM EDTA and 0.05% NaN3), harvested in FACS buffer with 0.5 μg/ml propidium iodide (Sigma, Cat. P4864) and analyzed in a flow cytometer (CANTO™ II, BD Biosciences) equipped with high throughput sampler. Live HEK #354 cells were gated as propidium iodide negative population and analyzed for expression of Fpn-GFP.

The next experiment deals with T2, ferroportin (Fpn) (Mus musculus, UniProt Q9JHI9).
T2 construct: host or cells: J774 mouse macrophage cell line, Fe(III)-NTA induced
T2 sequence (Q9JHI9 1-570): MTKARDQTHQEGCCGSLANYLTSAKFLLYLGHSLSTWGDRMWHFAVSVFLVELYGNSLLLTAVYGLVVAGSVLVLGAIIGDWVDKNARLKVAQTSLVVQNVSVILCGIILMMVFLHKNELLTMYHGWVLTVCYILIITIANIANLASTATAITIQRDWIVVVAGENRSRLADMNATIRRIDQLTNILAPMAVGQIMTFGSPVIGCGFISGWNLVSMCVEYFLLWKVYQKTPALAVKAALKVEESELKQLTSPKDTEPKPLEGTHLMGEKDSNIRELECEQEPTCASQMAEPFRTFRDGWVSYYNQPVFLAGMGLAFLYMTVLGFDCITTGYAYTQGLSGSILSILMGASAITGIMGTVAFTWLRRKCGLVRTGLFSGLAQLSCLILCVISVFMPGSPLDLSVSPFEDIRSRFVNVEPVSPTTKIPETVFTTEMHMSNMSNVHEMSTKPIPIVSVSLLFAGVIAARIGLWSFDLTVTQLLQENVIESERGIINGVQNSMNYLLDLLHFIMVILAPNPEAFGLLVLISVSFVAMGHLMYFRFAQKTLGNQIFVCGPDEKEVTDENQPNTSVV
In words: Hepcidin Internalization Assay (J774). The class given is cell-based. The following applies: average of multiple measurements; inhibition of TMR-hepcidin (25 nM) internalization into J774 cells; read-out: J774 IC50. Summed up:
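Inhibition of fluorescent TMR-hepcidin uptake via ferroportin was imaged in fixed J774 cells after a 2 h, 37 °C co-incubation with compound dilutions; cells were pre-cultured overnight with 200 μM Fe(III)NTA. Internalized TMR signal per cell (Sum(Mean)) was fitted as log(inhibitor) vs. response for IC50, in triplicate.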

The target in a further experiment is T3, human Fpn (Homo sapiens, UniProt Q9NP59).
T3 construct: FLAG (C); made in house; host or cells: Pichia pastoris
T3 sequence (Q9NP59 1-571): T1 sequence (Q9NP59 1-571)
The experiment can be described thus: Biophysical Ferroportin-Hepcidin Binding Assay (fluorescence polarization). The following applies: average of multiple measurements; 1 μM human Fpn, 20 nM TMR-hepcidin; read-out: FP IC50. Summed up: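 FP readout: a dose-dependent drop in TMR-hepcidin polarization (mP, from parallel and perpendicular emission) marked blocked binding to FLAG-tagged human Fpn purified from Pichia pastoris. Final levels were 1 μM Fpn and 20 nM TMR-hepcidin, with compound dilutions in duplicate, incubated 90 min at room temperature.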

The subject of another experiment is naïve WT C57BL/6 mice. The experiment can be described thus: Hypoferremia in naïve mice. It is filed as in vivo, mouse. The following applies: Mus musculus, po, 3 h, read-out: Serum Iron Reduction at 3 h (%). How it is done:
Female C57BL/6 mice (Janvier, France) at age of 9 weeks were fed a standard diet (Harlan Provimi Kliba 3436) and treated per os (p.o.) with compounds or the corresponding amount of vehicle at a volume of 10 ml/kg body weight. Fpn inhibitors were formulated in 0.5% methylcellulose/water or 20% cremophor EL/water and dosed p.o. in mice at 10, 30 or 100 mg/kg body weight. Three hours later, mice were pre terminally anesthetized in isoflurane chambers and blood was collected by retro-orbital bleeding. Mice were sacrificed by cervical dislocation and spleens, livers and duodena were harvested and used for biomarker analysis. All experiments have been conducted in compliance with the license approved by the responsible veterinarian authorities. Serum was isolated by centrifugation of blood into gel-containing microtainers and serum iron was determined by the MULTIGENT Iron assay (Abbott Diagnostics, 6K95). Eight mice per group were used and one-way ANOVA with Bonferroni's multiple comparison test was performed to analyze the statistical differences between the experimental groups.

Setting [1] is: Dose 10 mg/kg p.o., naïve WT C57BL/6 mice, relative to vehicle.
Where [2] appears, read: Dose 30 mg/kg p.o., naïve WT C57BL/6 mice, relative to vehicle.
Where [3] appears, read: Dose 100 mg/kg p.o., naïve WT C57BL/6 mice, relative to vehicle.

Structures are written as SMILES. Where “and” joins values, the source holds several entries; their conditions need not be identical. Equal entries are not always repeated. Structures can show the parent of a compound that is named as a salt. Where two headings read alike, the source gives them in different places.

Consider `O=C(NCc1ncccc1F)c1csc(CCCNc2nc3ccccc3[nH]2)n1` [Example 135], for which, at human Fpn-GFP fusion, the midpoint of the response, the EC50, lay at 21.2 µM. For the same compound, the IC50 (as a rule, the point on the concentration scale where inhibition reaches its midpoint) came to 3.41 µM at ferroportin (Fpn) and 36.9 µM at human Fpn.
In the case of `O=C(NCc1ncccc1F)c1csc([C@H]2[C@@H]3CN(Cc4nc5ccccc5[nH]4)C[C@@H]32)n1` [Example Compound No. 213, 2-[(1R,5S,6S)-3-(1H-1,3-Benzodiazol-2-ylmethyl)-3-azabicyclo[3.1.0]hexan-6-yl]-N-[(3-fluoropyridin-2-yl)methyl]-1,3-thiazole-4-carboxamide Trihydrochloride], the EC50 (commonly the concentration giving half of the maximal effect) on human Fpn-GFP fusion worked out at 4.14 µM.
On to `O=C(NCc1ccccc1)c1csc(CCNCc2nc3ccccc3[nH]2)n1` [Example 1], for which the DC50 at human Fpn-GFP fusion was found to be 4.66 µM. The results for the IC50 at ferroportin (Fpn) and at human Fpn were 0.5 µM and 0.49 µM, respectively.
Regarding `O=C(NCc1ncccc1F)c1cccc(CCNCc2nc3ccccc3[nH]2)n1` [Example 133], the DC50 on human Fpn-GFP fusion is 20.7 µM. The figures for the IC50 at ferroportin (Fpn) and on human Fpn were 4.56 µM and 2.5 µM, respectively.
Turning to `O=C(NCc1ncccc1F)c1cccc(CCNCCc2nc3ccccc3[nH]2)n1` [Example 146], at human Fpn-GFP fusion, the DC50 was determined as 25.3 µM. Besides, the figures for the IC50 on ferroportin (Fpn) and on human Fpn were 3.11 µM and 1.3 µM, respectively.
Turning to `O=C(NCc1ncccc1F)c1csc(C2CN(CCc3nc4ccccc4[nH]3)C2)n1` [Example 193], in the experiment on naïve WT C57BL/6 mice (setting [1]), the inhibition in vivo at 10 mg/kg stood at 13%. The inhibition in vivo at 30 mg/kg with naïve WT C57BL/6 mice (setting [2]) was found to be 11%. The inhibition in vivo at 100 mg/kg with naïve WT C57BL/6 mice (setting [3]) worked out at 31%. In addition, the concentration for half-maximal inhibition (IC50) at ferroportin (Fpn) worked out at 0.287 µM.
Regarding `O=C(NCc1ncccc1F)c1cnn(C2CN(Cc3nc4ccccc4[nH]3)C2)c1` [Example 136], at human Fpn-GFP fusion, the EC50 was 17.9 µM. Besides, the IC50 at ferroportin (Fpn) is > 10.5 µM; at human Fpn, 6.85 µM.
For the compound `O=C(NCC1CCCCN1)c1csc(CCNCc2nc3ccccc3[nH]2)n1` (stereo not drawn) [Example 185], at human Fpn-GFP fusion, the DC50 turned out to be 14.4 µM. Further, the IC50 on ferroportin (Fpn) is 2.23 µM; at human Fpn it was 2.9 µM.
Regarding `O=C(NCc1ncccc1Cl)c1nc(CCNCc2nc3ccccc3[nH]2)sc1Cl` [Example 159], the inhibition in vivo at 10 mg/kg with naïve WT C57BL/6 mice (setting [1]) is 4%. Besides, the inhibition in vivo at 30 mg/kg in the experiment with naïve WT C57BL/6 mice (setting [2]) came out at 26%. The inhibition in vivo at 100 mg/kg in the experiment on naïve WT C57BL/6 mice (setting [3]) is 60%. Also, at ferroportin (Fpn), the half-inhibitory concentration (IC50) turned out to be 0.091 µM.
On the same counts, the results for `O=C(NCc1ccccc1)c1csc(CCNCc2ccncn2)n1` [Example 27] are 20%, 30%, 45% and 38.4 µM.
As for `O=C(NCc1ncccc1F)c1csc(CCNCc2ccc3nc[nH]c3c2)n1` [Example 139], the EC50 on human Fpn-GFP fusion was > 20 µM and < 50 µM. Moreover, the IC50 is 4.79 µM on ferroportin (Fpn) and 63.1 µM at human Fpn.
In the case of `O=C(NCc1ncccc1F)c1csc(CCN(Cc2nc3ccccc3[nH]2)Cc2nc3ccccc3[nH]2)n1` [Example 166], the EC50 at human Fpn-GFP fusion was > 20 µM and < 50 µM. The IC50 is 1.12 µM at ferroportin (Fpn) and 0.37 µM on human Fpn.
Take `O=C(Cn1cc(C(=O)NCc2ncccc2F)cn1)NCCc1nc2ccccc2[nH]1` [Example 117]: on human Fpn-GFP fusion, the half-maximal effective concentration (EC50) is > 25 µM and < 50 µM. Moreover, the IC50 was 9.7 µM at ferroportin (Fpn) and 9 µM at human Fpn.
Regarding `O=C(NCc1ncccc1F)c1cn(CCNCCc2nc3ccccc3[nH]2)nn1` [compound 277], in the experiment on naïve WT C57BL/6 mice, the inhibition in vivo at 10 mg/kg is 6%, the inhibition in vivo at 30 mg/kg worked out at 21% and the inhibition in vivo at 100 mg/kg was found to be 54%.
For the compound `O=C(NCc1ncccc1F)c1cccc(CCN(CCc2nc3ccccc3[nH]2)CCc2nc3ccccc3[nH]2)n1` [Example 147], at human Fpn-GFP fusion, the DC50 came to 0.813 µM. For the same compound, the concentration for half-maximal inhibition (IC50) at ferroportin (Fpn) turned out to be 0.533 µM; on human Fpn, 0.56 µM.
For the compound `O=C(NCc1ncccc1F)c1csc(CCNCc2cccc3nc[nH]c23)n1` [Example 140], at human Fpn-GFP fusion, the EC50 is > 20 µM and < 50 µM. Moreover, the 50% inhibitory concentration (IC50) at ferroportin (Fpn) came out at 3.73 µM; on human Fpn it was 6.9 µM.
For the compound `O=C(NCc1ccccn1)c1coc(CCNCCc2nc3ccccc3[nH]2)n1` [Example 171], the inhibition in vivo at 10 mg/kg in the experiment with naïve WT C57BL/6 mice (setting [1]) was 10%. In the experiment with naïve WT C57BL/6 mice (setting [2]), the inhibition in vivo at 30 mg/kg came out at 42%. The inhibition in vivo at 100 mg/kg with naïve WT C57BL/6 mice (setting [3]) stood at 61%. In addition, the IC50 at ferroportin (Fpn) came out at 0.026 µM.
For the compound `O=C(NCc1ccccn1)c1csc(CCNCCc2nc3ccccc3[nH]2)n1` [Example 58], the inhibition in vivo at 10 mg/kg in the experiment with naïve WT C57BL/6 mice (setting [1]) stood at 20%. Also, the inhibition in vivo at 30 mg/kg in the experiment on naïve WT C57BL/6 mice (setting [2]) turned out to be 30%. Moreover, the inhibition in vivo at 100 mg/kg in the experiment on naïve WT C57BL/6 mice (setting [3]) turned out to be 40%. Moreover, the IC50 on ferroportin (Fpn) came to 0.01 µM.
